Measurements published in paper PMC5412352 (International Journal of Molecular Sciences, 2017).

Experiments:
[1] = biological target: T1, hGhrR (COS7 cells stably transfected with hGhrR) (Homo sapiens, UniProt Q92847); test: Inositol phosphate accumulation assay, antagonistic potency with 10^-8 M ghrelin; type: cell-based
T1 construct: expressed in transfected cells
Description: Antagonistic properties at the hGhrR
antagonistic potency in an inositol phosphate accumulation assay (Table S1). The receptor was
Table S1. Inositol phosphate accumulation assay to determine antagonistic potencies of candidate
Compounds were analyzed by inositol phosphate accumulation in COS7 cells stably

rat σ2 receptor = biological target: T2, rat σ2 receptor (Rattus norvegicus, UniProt Q5U3Y7); test: Selectivity radioligand displacement, [3H]DTG, rat liver homogenate; type: binding; details: [3H]DTG + 1 µM dextrallorphan
T2 construct: rat σ2 receptor = rat liver homogenate; from tissue; host or cells: rat liver homogenate
T2 sequence (Q5U3Y7 1-176): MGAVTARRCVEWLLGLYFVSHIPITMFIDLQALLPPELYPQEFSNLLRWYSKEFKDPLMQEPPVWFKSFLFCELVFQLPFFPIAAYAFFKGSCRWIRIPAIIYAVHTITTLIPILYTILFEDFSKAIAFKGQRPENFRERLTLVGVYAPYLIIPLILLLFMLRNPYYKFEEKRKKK
Description: […]
The incubations were terminated by rapid filtration via glass-fiber filters presoaked in PEI (0.3%, 60 min at rt), and the filter-bound radioactivity was counted by liquid scintillation counting (Tricarb, PerkinElmer).

[2] = biological target: human GhrR (hGhrR-eYFP, HEK293 cell membranes) (Homo sapiens, UniProt Q92847); test: Competitive radioligand binding assay with [125I-His9]ghrelin at hGhrR membranes
Sequence of human GhrR (hGhrR-eYFP, HEK293 cell membranes) (Q92847 whole entry): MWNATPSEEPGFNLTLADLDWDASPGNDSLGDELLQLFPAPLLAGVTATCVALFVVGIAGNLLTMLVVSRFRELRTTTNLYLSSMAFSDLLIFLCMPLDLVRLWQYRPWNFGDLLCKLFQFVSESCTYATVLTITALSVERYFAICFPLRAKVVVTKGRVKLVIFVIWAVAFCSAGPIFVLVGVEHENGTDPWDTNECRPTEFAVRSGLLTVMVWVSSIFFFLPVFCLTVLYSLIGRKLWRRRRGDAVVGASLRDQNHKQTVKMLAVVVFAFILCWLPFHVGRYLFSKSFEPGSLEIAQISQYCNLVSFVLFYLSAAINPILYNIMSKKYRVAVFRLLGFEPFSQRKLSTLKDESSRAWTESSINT

T1 sequence (Q92847 whole entry): as above

IC50 ([1]; 5 min pre-stimulation with compound, then 10^-8 M ghrelin, read-out: IC50 (antagonistic potency)): 24.8 nM | Emax ([1]; COS-7, read-out: Emax (antagonistic efficacy)): 38 ± 4% | Ki (rat σ2 receptor): 87 ± 23 nM | IC50 [2]: 2.19 nM
Compound: Cc1nc2ccc(Oc3ccc(Br)cc3F)nc2c(=O)n1C[C@H]1CCCN(C(C)C)C1 [(S)-9, (S)-6-(4-Bromo-2-fluorophenoxy)-3-((1-isopropylpiperidin-3-yl)methyl)-2-methylpyrido[3,2-d]pyrimidin-4(3H)-one]
